# From patent publication US12172983B2, “EGFR inhibitors” (Blueprint Medicines Corporation, priority 2019, dated 2024)
# Read-outs that look alike come from different tables or passages of the source.
# Legend:
# [1] = system: phosphorylation of EGFR (Tyr1068) in NCI-H1975 cell line that harbors the EGFR L858R T790M mutations; assay: NCI-H1975 pEGFR AlphaLISA assay; format: cell-based; conditions: 4-5 hours incubation, read-out: Ext pEGFR H1975
# Method in brief: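 NCI-H1975 cells (EGFR L858R/T790M) seeded overnight, then treated with compound for 4-5 h at 37 °C/5% CO2. After lysis, p-EGFR (Tyr1068) quantified by AlphaLISA SureFire Ultra with acceptor then donor beads; IC50 fitted from percent inhibition versus log concentration.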
# [2] = target: T1, EGFR (L858R T790M C797S) (Homo sapiens, UniProt P00533, C797S/L858R/T790M); assay: Biochemical EGFR inhibition assay (Caliper mobility shift), EGFR LRTMCS mutant; conditions: inhibitory activity against EGFR LRTMCS mutant; apparent IC50; read-out: Ext Enz LRTMCS
# T1 construct: purchased SignalChem E10-122VG
# T1 sequence (P00533 25-1210 T790M/C797S/L858R): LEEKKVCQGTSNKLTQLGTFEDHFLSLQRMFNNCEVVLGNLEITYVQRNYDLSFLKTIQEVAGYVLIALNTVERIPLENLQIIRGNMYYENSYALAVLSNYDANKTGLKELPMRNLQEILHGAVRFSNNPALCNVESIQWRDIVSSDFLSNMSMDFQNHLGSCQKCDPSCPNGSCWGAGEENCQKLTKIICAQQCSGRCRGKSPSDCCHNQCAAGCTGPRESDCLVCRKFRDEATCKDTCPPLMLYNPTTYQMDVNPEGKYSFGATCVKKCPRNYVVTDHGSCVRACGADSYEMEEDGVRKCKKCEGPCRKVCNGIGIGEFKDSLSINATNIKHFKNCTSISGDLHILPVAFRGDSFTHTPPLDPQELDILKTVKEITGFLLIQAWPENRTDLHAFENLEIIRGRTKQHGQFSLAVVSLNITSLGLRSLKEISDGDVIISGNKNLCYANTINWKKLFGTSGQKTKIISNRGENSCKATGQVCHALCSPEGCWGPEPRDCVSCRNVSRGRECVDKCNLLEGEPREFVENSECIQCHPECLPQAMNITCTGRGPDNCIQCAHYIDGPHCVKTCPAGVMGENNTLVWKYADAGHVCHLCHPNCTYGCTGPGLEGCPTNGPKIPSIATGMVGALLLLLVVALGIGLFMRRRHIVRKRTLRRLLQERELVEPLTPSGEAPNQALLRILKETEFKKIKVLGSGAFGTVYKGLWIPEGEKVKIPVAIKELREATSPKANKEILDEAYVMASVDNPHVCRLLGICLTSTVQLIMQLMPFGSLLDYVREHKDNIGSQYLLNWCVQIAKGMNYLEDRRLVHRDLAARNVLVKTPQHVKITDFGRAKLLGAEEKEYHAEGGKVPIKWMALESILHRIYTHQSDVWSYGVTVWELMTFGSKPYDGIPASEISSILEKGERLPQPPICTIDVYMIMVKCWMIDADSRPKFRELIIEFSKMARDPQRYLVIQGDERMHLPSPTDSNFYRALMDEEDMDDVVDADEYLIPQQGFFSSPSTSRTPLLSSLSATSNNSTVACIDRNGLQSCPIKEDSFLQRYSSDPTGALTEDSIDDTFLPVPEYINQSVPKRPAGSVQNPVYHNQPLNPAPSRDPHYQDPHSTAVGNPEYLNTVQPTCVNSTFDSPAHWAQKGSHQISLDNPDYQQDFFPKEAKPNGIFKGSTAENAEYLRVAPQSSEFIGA
# Method in brief: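 Kinase reactions proceed at 25° C. to 10%–20% conversion of total peptide, are terminated with 35 mM EDTA, and the phosphopeptide is resolved from substrate by electrophoretic mobility shift. Apparent IC50 values come from plotting percent activity against log compound concentration.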
# [3] = Homo sapiens, NCI-H1975, inhibition of phosphorylation of mutant EGFR in NCI-H1975 cells
# [4] = inhibition of phosphorylation of mutant EGFR in NCI-H1975 cells
smiles,measurement,setting,value
"CC(C)c1ccc(N2CC(CS(C)(=O)=O)C2)c2cnc(Nc3ccnc(N4CCC5(OCCO5)[C@H](F)C4)n3)cc12 (single isomer, unassigned) [Compound 180, N-{2-[(6R)-6-fluoro-1,4-dioxa-8-azaspiro[4.5]decan-8-yl]pyrimidin-4-yl}-8-[3-(methanesulfonylmethyl)azetidin-1-yl]-5-(propan-2-yl)isoquinolin-3-amine or N-{2-[(6S)-6-fluoro-1,4-dioxa-8-azaspiro[4.5]decan-8-yl]pyrimidin-4-yl}-8-[3-(methanesulfonylmethyl)azetidin-1-yl]-5-(propan-2-yl)isoquinolin-3-amine]",IC50,[1]; [3],10.1 to 20 nM
same,IC50,[2],≤ 15 nM
"CCS(=O)(=O)CC1CN(c2ccc(C(C)C)c3cc(Nc4ccnc(N5C[C@@H](F)[C@@H](O)C(C)(C)C5)n4)ncc23)C1 (single isomer, unassigned) [Compound 182, (4S,5R)-1-{4-[(8-{3-[(ethanesulfonyl)methyl]azetidin-1-yl}-5-(propan-2-yl)isoquinolin-3-yl)amino]pyrimidin-2-yl}-5-fluoro-3,3-dimethylpiperidin-4-ol or (4R,5S)-1-{4-[(8-{3-[(ethanesulfonyl)methyl]azetidin-1-yl}-5-(propan-2-yl)isoquinolin-3-yl)amino]pyrimidin-2-yl}-5-fluoro-3,3-dimethylpiperidin-4-ol]",IC50,[1]; [3],≤ 10 nM
same,IC50,[2],≤ 15 nM
"CCS(=O)(=O)C[C@H]1CN(c2ncc(C(C)C)c3cc(Nc4ccnc(N5CC[C@](C)(O)[C@H](F)C5)n4)ncc23)[C@@H]1C (single isomer, unassigned) [Compound 191]",IC50,[1]; [3],≤ 10 nM
same,IC50,[2],≤ 15 nM
"CO[C@H]1CCN(c2nccc(Nc3cc4c(C(C)C)ccc(N5CC(CS(C)(=O)=O)C5)c4cn3)n2)C[C@@H]1O (single isomer, unassigned) [Compound 54, (3R,4R)-1-[4-({8-[3-(methanesulfonylmethyl)azetidin-1-yl]-5-(propan-2-yl)isoquinolin-3-yl}amino)pyrimidin-2-yl]-4-methoxypiperidin-3-ol or (3S,4S)-1-[4-({8-[3-(methanesulfonylmethyl)azetidin-1-yl]-5-(propan-2-yl)isoquinolin-3-yl}amino)pyrimidin-2-yl]-4-methoxypiperidin-3-ol]",IC50,[1]; [4],30.1 to 50 nM
same,IC50,[2],≤ 15 nM
"CCS(=N)(=O)CC1CN(c2ccc(C(C)C)c3cc(Nc4ccnc(N5CCC(OC)C(F)C5)n4)ncc23)C1 (single isomer, unassigned) [Compound 275, (S)-ethyl({1-[3-({2-[(3R,4S)-3-fluoro-4-methoxypiperidin-1-yl]pyrimidin-4-yl}amino)-5-(propan-2-yl)isoquinolin-8-yl]azetidin-3-yl}methyl)imino-λ^6-sulfanone or (R)-ethyl({1-[3-({2-[(3R,4S)-3-fluoro-4-methoxypiperidin-1-yl]pyrimidin-4-yl}amino)-5-(propan-2-yl)isoquinolin-8-yl]azetidin-3-yl}methyl)imino-λ^6-sulfanone]",IC50,[1]; [4],30.1 to 50 nM
same,IC50,[2],15.1 to 20 nM
"CCOc1ccc(N2CC(CS(=O)(=O)CC)C2)c2cnc(Nc3ccnc(N4CC[C@@H](O)[C@@](C)(F)C4)n3)cc12 (single isomer, unassigned) [Compound 145]",IC50,[1]; [3],20.1 to 30 nM
same,IC50,[2],15.1 to 20 nM
"CC(C)c1ccc(N2CC(CS(=O)(=O)C3CN(C)C3)C2)c2cnc(Nc3ccnc(N4CC[C@@H](O)[C@@](C)(F)C4)n3)cc12 (single isomer, unassigned) [Compound 238]",IC50,[1]; [3],≤ 10 nM
same,IC50,[2],≤ 15 nM
"C[C@@H]1[C@@H](CS(C)(=O)=O)CN1c1ccc(F)c2cc(Nc3ccnc(N4C[C@H](F)[C@H](O)C(C)(C)C4)n3)ncc12 (single isomer, unassigned) [Compound 83, (4S,5R)-5-fluoro-1-[4-({5-fluoro-8-[(2R,3S)-3-(methanesulfonylmethyl)-2-methylazetidin-1-yl]isoquinolin-3-yl}amino)pyrimidin-2-yl]-3,3-dimethylpiperidin-4-ol or (4R,5S)-5-fluoro-1-[4-({5-fluoro-8-[(2R,3S)-3-(methanesulfonylmethyl)-2-methylazetidin-1-yl]isoquinolin-3-yl}amino)pyrimidin-2-yl]-3,3-dimethylpiperidin-4-ol]",IC50,[1]; [3],≤ 10 nM
same,IC50,[2],≤ 15 nM
"C[C@@H]1[C@@H](CS(C)(=O)=O)CN1c1cccc2cc(Nc3ccnc(N4C[C@@H](F)[C@@H](O)[C@](C)(F)C4)n3)ncc12 (single isomer, unassigned) [Compound 35, (3R,4R,5R)-3,5-difluoro-1-[4-({8-[(2R,3S)-3-(methanesulfonylmethyl)-2-methylazetidin-1-yl]isoquinolin-3-yl}amino)pyrimidin-2-yl]-3-methylpiperidin-4-ol or (3S,4S,5S)-3,5-difluoro-1-[4-({8-[(2R,3S)-3-(methanesulfonylmethyl)-2-methylazetidin-1-yl]isoquinolin-3-yl}amino)pyrimidin-2-yl]-3-methylpiperidin-4-ol]",IC50,[1]; [3],30.1 to 50 nM
same,IC50,[2],≤ 15 nM
"CO[C@@H]1CCN(c2nccc(Nc3cc4c(C(C)C)ncc(N5CC(CS(C)(=O)=O)C5)c4cn3)n2)C[C@]1(C)F [Compound 144, N-{2-[(3S,4R)-3-fluoro-4-methoxy-3-methylpiperidin-1-yl]pyrimidin-4-yl}-8-[3-(methanesulfonylmethyl)azetidin-1-yl]-5-(propan-2-yl)-2,6-naphthyridin-3-amine]",IC50,[1]; [3],≤ 10 nM
same,IC50,[2],≤ 15 nM
"CCS(=O)(=O)CC1CN(c2ccc(C)c3cc(Nc4ccnc(N5C[C@@H](F)[C@@H](O)C(C)(C)C5)n4)ncc23)C1 (single isomer, unassigned) [Compound 60, (4S,5R)-1-{4-[(8-{3-[(ethanesulfonyl)methyl]azetidin-1-yl}-5-methylisoquinolin-3-yl)amino]pyrimidin-2-yl}-5-fluoro-3,3-dimethylpiperidin-4-ol or (4R,5S)-1-{4-[(8-{3-[(ethanesulfonyl)methyl]azetidin-1-yl}-5-methylisoquinolin-3-yl)amino]pyrimidin-2-yl}-5-fluoro-3,3-dimethylpiperidin-4-ol]",IC50,[1]; [3],20.1 to 30 nM
same,IC50,[2],≤ 15 nM
"COCCO[C@H]1CCN(c2nccc(Nc3cc4c(C(C)C)ccc(N5C[C@H](CS(C)(=O)=O)[C@H]5C)c4cn3)n2)C[C@H]1F (single isomer, unassigned) [Compound 246]",IC50,[1]; [3],≤ 10 nM
same,IC50,[2],≤ 15 nM
"CCS(=O)(=O)C[C@H]1CN(c2ccc(C(C)C)c3cc(Nc4ccnc(N5CC[C@@H](OCCO)C(F)(F)C5)n4)ncc23)[C@@H]1C (single isomer, unassigned) [Compound 302, 2-{[(4R)-1-[4-({8-[(2R,3S)-3-[(ethanesulfonyl)methyl]-2-methylazetidin-1-yl]-5-(propan-2-yl)isoquinolin-3-yl}amino)pyrimidin-2-yl]-3,3-difluoropiperidin-4-yl]oxy}ethan-1-ol or 2-{[(4S)-1-[4-({8-[(2R,3S)-3-[(ethanesulfonyl)methyl]-2-methylazetidin-1-yl]-5-(propan-2-yl)isoquinolin-3-yl}amino)pyrimidin-2-yl]-3,3-difluoropiperidin-4-yl]oxy}ethan-1-ol]",IC50,[1]; [3],≤ 10 nM
same,IC50,[2],15.1 to 20 nM
"CCS(=O)(=O)CC1CN(c2ccc(C)c3cc(Nc4ccnc(N5CC[C@@H](O)[C@@](C)(F)C5)n4)ncc23)C1 (single isomer, unassigned) [Compound 25]",IC50,[1]; [3],30.1 to 50 nM
same,IC50,[2],≤ 15 nM
"[2H]C([2H])([2H])O[C@H]1CCN(c2nccc(Nc3cc4c(C(C)C)ccc(N5CC(CS(C)(=O)=O)C5)c4cn3)n2)CC1(F)F (single isomer, unassigned) [Compound 287, N-{2-[(4R)-3,3-difluoro-4-(^2H3)methoxypiperidin-1-yl]pyrimidin-4-yl}-8-[3-(methanesulfonylmethyl)azetidin-1-yl]-5-(propan-2-yl)isoquinolin-3-amine or N-{2-[(4S)-3,3-difluoro-4-(^2H3)methoxypiperidin-1-yl]pyrimidin-4-yl}-8-[3-(methanesulfonylmethyl)azetidin-1-yl]-5-(propan-2-yl)isoquinolin-3-amine]",IC50,[1]; [4],10.1 to 20 nM
same,IC50,[2],20.1 to 30 nM
"CC(C)c1cnc(N2C[C@H](CS(C)(=O)=O)[C@H]2C)c2cnc(Nc3ccnc(N4CC[C@H]5COC[C@H]54)n3)cc12 (single isomer, unassigned) [Compound 266, N-{2-[(3aR,6aS)-hexahydro-1H-furo[3,4-b]pyrrol-1-yl]pyrimidin-4-yl}-8-[(2R,3S)-3-(methanesulfonylmethyl)-2-methylazetidin-1-yl]-5-(propan-2-yl)-2,7-naphthyridin-3-amine or N-{2-[(3aS,6aR)-hexahydro-1H-furo[3,4-b]pyrrol-1-yl]pyrimidin-4-yl}-8-[(2R,3S)-3-(methanesulfonylmethyl)-2-methylazetidin-1-yl]-5-(propan-2-yl)-2,7-naphthyridin-3-amine]",IC50,[1]; [3],≤ 10 nM
same,IC50,[2],≤ 15 nM
"CC(C)c1ccc(N2CC(CS(C)(=O)=O)C2)c2cnc(Nc3ccnc(N4CC[C@](F)([C@@H](C)O)C4)n3)cc12 (single isomer, unassigned) [Compound 58, (1R)-1-[(3R)-3-fluoro-1-[4-({8-[3-(methanesulfonylmethyl)azetidin-1-yl]-5-(propan-2-yl)isoquinolin-3-yl}amino)pyrimidin-2-yl]pyrrolidin-3-yl]ethan-1-ol or (1S)-1-[(3S)-3-fluoro-1-[4-({8-[3-(methanesulfonylmethyl)azetidin-1-yl]-5-(propan-2-yl)isoquinolin-3-yl}amino)pyrimidin-2-yl]pyrrolidin-3-yl]ethan-1-ol]",IC50,[1]; [3],20.1 to 30 nM
same,IC50,[2],15.1 to 20 nM
